Measured values reported in paper PMC6694116, “A CRISPR-Cas12a-derived biosensing platform for the highly sensitive detection of diverse small molecules” (Nature Communications, 2019).

Assays:
CBD-HosA = CBD-HosA (Escherichia coli, UniProt P69782); test: EMSA, dissociation of operator dsDNA; format: binding; settings: 1.8 mM p-HBA in the specificity test; pH 7.5, room temperature; allosteric effector; also Cas12a read-out with immobilised protein
HosA = HosA (Escherichia coli, UniProt P69782); test: EMSA, dissociation of operator dsDNA; format: binding; settings: pH 7.5, room temperature; allosteric effector
HosA, sequence (P69782 whole entry): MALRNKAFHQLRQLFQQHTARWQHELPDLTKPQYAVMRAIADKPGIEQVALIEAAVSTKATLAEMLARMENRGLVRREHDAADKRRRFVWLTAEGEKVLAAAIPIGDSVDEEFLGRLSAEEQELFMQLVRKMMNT

CBD-TetR [1] = target: CBD-TetR (Escherichia coli, UniProt P04483); settings: pH 7.5, room temperature; allosteric effector
CBD-TetR (Escherichia coli, UniProt P04483), sequence (P04483 whole entry): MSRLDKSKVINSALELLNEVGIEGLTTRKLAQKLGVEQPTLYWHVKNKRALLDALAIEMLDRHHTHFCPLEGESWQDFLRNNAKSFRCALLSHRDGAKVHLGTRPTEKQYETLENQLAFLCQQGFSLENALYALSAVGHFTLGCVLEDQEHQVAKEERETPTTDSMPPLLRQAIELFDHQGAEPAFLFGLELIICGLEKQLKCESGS

CBD-HucR [2] = target: T1, CBD-HucR (Deinococcus radiodurans, UniProt Q9RV71); test: EMSA, dissociation of operator dsDNA; format: binding; settings: 0.05-500 uM uric acid; pH 7.5, room temperature; allosteric effector; also Cas12a read-out with immobilised protein
T1 construct: gene DR_1159
T1 sequence (Q9RV71 1-181): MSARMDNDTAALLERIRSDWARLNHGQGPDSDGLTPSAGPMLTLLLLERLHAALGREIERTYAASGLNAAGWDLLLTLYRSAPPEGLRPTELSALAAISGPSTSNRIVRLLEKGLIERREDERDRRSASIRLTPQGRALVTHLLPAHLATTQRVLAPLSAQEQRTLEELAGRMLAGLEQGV

CBD-HucR [3] = target: T2, CBD-HucR (UniProt Q9RV71 1-181); test: EMSA; 25-200 nM protein, 40 nM DNA; EMSA: 10 mM Tris-HCl pH 7.5, 100 mM KCl, 1 mM EDTA, 0.1 mM DTT, 5% glycerol, 0.01 mg/mL BSA, room temperature 30 min; 1.5% agarose gel in Tris-borate-EDTA at 4; settings: protein: recombinant; tags: CBD fused via (SGGGG)4 linker; His tag; chain copies: 2; blunt
T2 sequence: T1 sequence (Q9RV71 1-181)

CBD-TetR [4] = target: CBD-TetR (UniProt P04483 1-207); test: as above; settings: protein: recombinant; tags: CBD fused via (SGGGG)4 linker; His tag; chain copies: 2; blunt
CBD-TetR (UniProt P04483 1-207), sequence (P04483 whole entry, the tested form may be a part): as the sequence (P04483 whole entry) above

CBD-HosA, sequence (P69782 whole entry): as the sequence (P69782 whole entry) above

Molecule: O=C(O)c1ccc(O)cc1 [p-HBA, p-hydroxybenzoic acid]
- EMSA, dissociation of operator dsDNA (CBD-HosA): p-HBA induced the almost complete dissociation of dsDNA from the CBD–HosA–dsDNA complex
- EMSA, dissociation of operator dsDNA (HosA): there were no significant differences between HosA and CBD-HosA on gel-shift images

Molecule: CN(C)[C@@H]1C(=O)C(C(N)=O)=C(O)[C@@]2(O)C(=O)C3=C(O)c4c(O)cccc4[C@@](C)(O)[C@H]3C[C@@H]12 [tetracycline]
- EMSA, dissociation of operator dsDNA (CBD-TetR [1]): Both CBD-TetR and CBD-HosA show perfect dsDNA-binding and effector-induced allosteric activities

Molecule: O=c1[nH]c(=O)c2[nH]c(=O)[nH]c2[nH]1 [uric acid]
- EMSA, dissociation of operator dsDNA (CBD-HucR [2]): increasing amounts of dsDNA dissociated from the CBD–HucR–dsDNA complex

B1: dsDNA(HucR) (dsDNA)
DNA 1: TACTGAGCCATGTATCCAGGTCATTGTACTTAGATGTCTACCTAAGCTCTGACAGTTCCA
DNA 2: TGGAACTGTCAGAGCTTAGGTAGACATCTAAGTACAATGACCTGGATACATGGCTCAGTA
- binding result (CBD-HucR [3]): binds

B2: dsDNA(TetR) (dsDNA)
DNA 1: TGAGCCATGTATCCAGGTCATTTGTCCCTATCAGTGATAGAGAAGCTCTGACAGTTCCA
DNA 2: TGGAACTGTCAGAGCTTCTCTATCACTGATAGGGACAAATGACCTGGATACATGGCTCA
- binding result (CBD-TetR [4]): binds
